For experiment [1], the target named is T1, TS (Homo sapiens, UniProt P04818). The experiment is described as follows: Surface plasmon resonance. Further details: His6 tag with TEV site (vector-encoded by pNIC28-Bsa4); made in house; host or cells: Rosetta BL21-DE3 Escherichia coli. The note with it: 200 μM dUMP, 20 nM to 10 μM compound; signal does not saturate. The format is binding. The procedure:
A concentration series (20 nM to 10 μM) of CBK115334 was injected over the prepared surface for 60 s and allowed to dissociate for 60 s with a flow rate of 70 μl min^−1 at 25 °C. The assay buffer was 20 mM HEPES, 150 mM NaCl, pH 7.5 and 0.005% Tween-20 supplemented with 1% DMSO and 200 μM dUMP. Response data was processed using the BIAevaluation software. Responses were double referenced and solvent-corrected. The data sets were fitted to 1:1 steady-state model for determination of binding constants.
Target sequence in this assay (P04818 whole entry): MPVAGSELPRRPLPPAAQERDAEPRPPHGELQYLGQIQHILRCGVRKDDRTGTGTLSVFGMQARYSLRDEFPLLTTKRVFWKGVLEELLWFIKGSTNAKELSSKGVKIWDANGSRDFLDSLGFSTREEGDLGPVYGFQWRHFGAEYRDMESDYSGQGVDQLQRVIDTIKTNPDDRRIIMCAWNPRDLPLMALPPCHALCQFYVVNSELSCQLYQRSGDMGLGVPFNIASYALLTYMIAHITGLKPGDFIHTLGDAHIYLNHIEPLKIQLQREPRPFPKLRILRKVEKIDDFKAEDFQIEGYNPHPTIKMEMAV
(In general: SPR reads the build-up and loss of mass on a sensor chip optically.)

Another experiment deals with K562 cells. The experiment is described as follows: Cell viability assay (CellTiter-Glo). The format is cell-based. As to conditions: Homo sapiens. The procedure: A concentration–response curve of CBK115334 was generated using the Bravo liquid handling system (serial dilution of a 50 mM stock solution was done in 100% DMSO). A total of 150 nl of the serially diluted solutions and controls (positive control 0.67 mM staurosporine and negative control DMSO) were transferred to a white 384-well assay plate (3570, Corning) by means of acoustic dispensing (Echo 550, Labcyte). A Multidrop reagent dispenser (Thermo Scientific) was used to dispense 30 μl of a K562 cell suspension at a density of 33 × 10^3 cells per ml in supplemented cell culture medium. The cells were incubated at 37 °C in the presence of 5% CO2 for 72 h before addition of 30 μl CellTiter-Glo Luminescent Cell Viability Assay reagent (Promega) using a Multidrop Combi reagent dispenser (Thermo Scientific). The plate was placed on a plate shaker for 15 min prior to detection of the luminescence signal in an Envision plate reader (PerkinElmer). The final highest concentration of CBK115334 in the incubation with cells was 250 μM and the final concentration of the positive control staurosporine was 3 μM. All samples contained 0.5% DMSO. The data were analyzed using microsoft excel and GraphPad Prism 6.

Experiment [2] deals with T1, TS. The experiment is described as follows: Thermal shift in vitro assay on recombinant protein. The experiment is classed as binding. Further details: His6 tag with TEV site (vector-encoded by pNIC28-Bsa4); made in house; host or cells: Rosetta BL21-DE3 Escherichia coli. How it is done:
The assay was performed on the iCycler iQ Real Time PCR Detection System (Bio-Rad), using the 96-well thin-wall PCR plate (Bio-Rad). The experiment was conducted in a buffer containing 20 mM HEPES at pH 7.5 and 150 mM NaCl. A total volume of 25 μl solution containing 0.2 mg ml^−1 protein, compounds and × 5 Sypro Orange dye (Invitrogen) diluted from 5,000 × stock was dispensed into the 96-well plate. The same amount of DMSO was added in the control wells. The plates were sealed with Microseal B adhesive sealer (Bio-Rad) and heated in iCycler from 25 to 80 °C (56 heating cycles in 28 min). Fluorescent filter used for Sypro Orange measurements was λexcitation=492 nm and λemission=610 nm. The calculation of the midpoint of the curves (Tm) was performed using the software package XLfit from IDBS within microsoft excel.
Decitabine at a concentration of 1 mM was incubated with 1 mg ml^−1 of recombinant DCK and 2.5 mM ATP in a buffer of 50 mM Tris at pH 7.5, 150 mM NaCl and 0.5 mM MgCl2 at room temperature for 60 min to generate the corresponding monophosphates. To probe for nucleotide deamination the samples were further treated with 1 mg ml^−1 of recombinant DCTD in the presence of 1 mM ATP and 10 μM ZnCl2 for 20 min at room temperature. After incubation, the samples were heated at 95 °C for 10 min and centrifuged for 10 min at the highest speed at 4 °C using a benchtop centrifuge. The supernatant was tested without dilution in thermal shift in vitro assays and the TS enzyme inhibition assay. The supernatants from samples without nucleoside were used as the treatment controls.
Target sequence in this assay (P04818 whole entry): as above

Experiment [3] has as its target T1, TS. Kind of experiment: Western blot ITDRF CETSA of decitabine with or without DCK inhibitor DI-82, K562 cells. On the set-up: screening in live, non-engineered cells expressing thymidylate synthase; endogenous in cells; host or cells: K562 (human myelogenous leukemia) cells. The experiment is classed as cell-based. How it is done: K562 cells were treated with each respective compound concentrations and one vehicle as control in 100 μl aliquots in 0.2 ml tubes for 2 h in an incubator at 37 °C and 5% CO2. The cell aliquots were heated at 50 °C and analyzed with western blot following the procedure described above.
For the decitabine metabolism, decitabine was serially diluted to generate an 11 point dose–response curve and an […] experiment was performed as described above in absence and presence of 200 μM of the DCK inhibitor DI-82 (referred to as 12R in the main text of the original publication and DI-82 in the Supplementary Material)[34].
NuPage Novex Bis-Tris 4–12% polyacrylamide gels with NuPAGE MES SDS running buffer (Life Technologies) were used for separation of proteins in the samples. Proteins were transferred to nitrocellulose membranes using the iBlot2 blotting system (Life Technologies). Primary antibodies anti-TS (D5B3) XP (Cell Signaling), anti-dCK (sc-393099), anti-β-actin (sc-69879); secondary goat anti-mouse HRP-IgG (sc-2055) and bovine anti-rabbit HRP-IgG (sc-2374) antibodies (Santa Cruz Biotechnology, Santa Cruz, CA, USA) were used for immunoblotting. […] Chemiluminescence intensities were detected and quantified using a ChemiDoc XRS+ imaging system (Bio-Rad) with Image Lab software (Bio-Rad).
Target sequence in this assay (P04818 2-313 limits assumed): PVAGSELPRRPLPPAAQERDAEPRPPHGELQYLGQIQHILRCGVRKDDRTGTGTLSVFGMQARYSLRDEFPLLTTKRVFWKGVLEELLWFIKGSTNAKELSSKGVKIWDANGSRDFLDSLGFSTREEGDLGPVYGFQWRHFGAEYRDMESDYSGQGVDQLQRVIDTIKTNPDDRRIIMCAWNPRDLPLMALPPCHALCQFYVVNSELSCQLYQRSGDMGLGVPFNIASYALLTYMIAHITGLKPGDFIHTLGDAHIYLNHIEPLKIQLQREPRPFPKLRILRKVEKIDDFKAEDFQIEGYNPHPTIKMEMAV
On the technique in general: Immunoblotting shows a protein as a band on a membrane.

Like-named read-outs stand apart in the source and are kept apart here.

With `Cc1cc(O)nc2sc(C(=O)c3ccccc3)c(N)c12` [CBK115334, 3-amino-2-benzoyl-4-methylthieno(2,3-b)pyridin-6-ol], the “binding to TS by surface plasmon resonance (steady state affinity)” value on TS [1] was “low μM range”. Also, the IC50 in the experiment on K562 cells (72 hours incubation, read-out: IC50 cell viability) was 88 ± 15 µM; with K562 cells (read-out: IC50 cell proliferation), less than 100 µM. Besides, at TS [2] (25 μM compound, 500 μM dUMP, read-out: thermal shift of isolated recombinant human TS), the ΔTm at 25 µM was found to be 2.6 °C. The ΔTm at 100 µM at TS [2] (100 μM compound, 500 μM dUMP, read-out: thermal shift of isolated recombinant human TS) amounted to 5.2 °C.
`Nc1ncn([C@H]2C[C@H](O)[C@@H](CO)O2)c(=O)n1` [decitabine, 5-Aza-deoxycytidine]: on TS [3] (in absence of DI-82, K562 cells), the “stabilization of TS (ITDRFCETSA)” value is given as “Dose-dependent stabilization”. Besides, at TS [3] (in presence of 200 μM DI-82, K562 cells), the “ability to bind TS (ITDRFCETSA)” value is “completely blunted”. The “stabilization of recombinant TS” value on TS [2] (1 mM decitabine after treatment with recombinant DCK) is reported as “only a marginal stabilization”. For the same molecule, at TS [2] (nucleoside without enzyme treatment), the “stabilization of recombinant TS in thermal shift assay” value is listed as “did not stabilize”. Also, the ΔTm at 1000 µM at TS [2] (read-out: thermal shift of recombinant TS) is roughly 10 °C.

The values are drawn from article PMC4820820, “CETSA screening identifies known and novel thymidylate synthase inhibitors and slow intracellular activation of 5-fluorouracil” (Nature Communications, 2016).
